Test results from PubChem BioAssay (NCI).
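Following 48 hours of exposure in 96-well plates, responses at five concentrations were used to interpolate endpoints linearly. The concentration for 50% growth inhibition is given as GI50. TGI: concentration producing complete growth inhibition.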

Tests used:
Assay in all cases: NCI tumour cell line growth inhibition, 48 h
[1] = system: COLO 205 colon
[2] = system: CAKI-1 renal
[3] = system: SR leukemia
[4] = system: CCRF-CEM leukemia
[5] = system: SK-MEL-28 melanoma
[6] = system: UO-31 renal
[7] = system: RPMI-8226 leukemia
[8] = system: SNB-19 CNS
[9] = system: TK-10 renal
[10] = system: HCT-116 colon
[11] = system: A549 NSCLC
[12] = system: OVCAR-8 ovarian
[13] = system: HOP-92 NSCLC
[14] = system: U251 CNS
[15] = system: OVCAR-4 ovarian
[16] = system: SNB-75 CNS
[17] = system: NCI-H23 lung
[18] = system: SF-295 CNS
[19] = system: KM12 colon
[20] = system: SN12C renal
[21] = system: EKVX NSCLC
[22] = system: HL-60(TB) leukemia
[23] = system: SF-539 CNS
[24] = system: K-562 leukemia
[25] = system: MDA-MB-231 breast
[26] = system: OVCAR-3 ovarian
[27] = system: NCI-H460 lung
[28] = system: SF-268 CNS
[29] = system: UACC-257 melanoma
[30] = system: MCF7 breast
[31] = system: SK-MEL-5 melanoma
[32] = system: A498 renal
[33] = system: LOX IMVI melanoma
[34] = system: NCI/ADR-RES ovarian
[35] = system: HCT-15 colon
[36] = system: SK-OV-3 ovarian
[37] = system: ACHN renal
[38] = system: SW-620 colon
[39] = system: NCI-H226 lung
[40] = system: OVCAR-5 ovarian
[41] = system: DU-145 prostate
[42] = system: IGROV1 ovarian
[43] = system: HOP-62 NSCLC
[44] = system: NCI-H522 lung
[45] = system: UACC-62 melanoma
[46] = system: 786-0 renal
[47] = system: HCC-2998 colon
[48] = system: HT29 colon
[49] = system: MALME-3M melanoma
[50] = system: RXF 393 renal
[51] = system: HS 578T breast
[52] = system: MOLT-4 leukemia
[53] = system: SK-MEL-2 melanoma
[54] = system: MDA-MB-435
[55] = system: M14 melanoma
[56] = system: BT-549 breast
[57] = system: PC-3 prostate
[58] = system: T-47D breast

CNCCC/C=C1\c2cc3c(cc2-c2c1c1cc(OC)c(OC)cc1c(=O)n2C)OCO3
GI50 [1]: 1130 nM
GI50 [2]: 269 nM
TGI [2]: 1480 nM
GI50 [3]: 211 nM
TGI [3]: 581 nM
GI50 [4]: 843 nM
TGI [4]: 10900 nM
GI50 [5]: 1400 nM
TGI [5]: 7990 nM
GI50 [6]: 750 nM
GI50 [7]: 1240 nM
TGI [7]: 7940 nM
GI50 [8]: 883 nM
TGI [8]: 24700 nM
GI50 [9]: 1830 nM
TGI [9]: 9830 nM
GI50 [10]: 399 nM
TGI [10]: 1900 nM
GI50 [11]: 1310 nM
TGI [11]: > 24500 nM
GI50 [12]: 2460 nM
TGI [12]: 19800 nM
GI50 [13]: 347 nM
TGI [13]: 5430 nM
GI50 [14]: 305 nM
TGI [14]: 4030 nM
GI50 [15]: 7990 nM
TGI [15]: 44300 nM
GI50 [16]: 1260 nM
TGI [16]: 11900 nM
GI50 [17]: 1070 nM
TGI [17]: 5310 nM
GI50 [18]: 322 nM
TGI [18]: 2270 nM
GI50 [19]: 1920 nM
TGI [19]: 18100 nM
GI50 [20]: 858 nM
TGI [20]: 5310 nM
GI50 [21]: 1310 nM
TGI [21]: 5700 nM
GI50 [22]: 2220 nM
TGI [22]: 12000 nM
GI50 [23]: 144 nM
TGI [23]: 558 nM
GI50 [24]: 493 nM
TGI [24]: 5870 nM
GI50 [25]: 1030 nM
TGI [25]: 5310 nM
GI50 [26]: 985 nM
TGI [26]: 4120 nM
GI50 [27]: 331 nM
GI50 [28]: 521 nM
TGI [28]: 10000 nM
GI50 [29]: 3090 nM
TGI [29]: > 100000 nM
GI50 [30]: 244 nM
TGI [30]: 813 nM
GI50 [31]: 435 nM
TGI [31]: 1690 nM
GI50 [32]: < 32.7 nM
TGI [32]: 341 nM
GI50 [33]: 322 nM
TGI [33]: 1740 nM
GI50 [34]: 1530 nM
TGI [34]: 10300 nM
GI50 [35]: 1150 nM
TGI [35]: 6770 nM
GI50 [36]: 1870 nM
GI50 [37]: 245 nM
TGI [37]: 1040 nM
GI50 [38]: 793 nM
TGI [38]: 19500 nM
GI50 [39]: 509 nM
TGI [39]: 2090 nM
GI50 [40]: 1380 nM
TGI [40]: 8890 nM
GI50 [41]: 1070 nM
TGI [41]: 5500 nM
GI50 [42]: 487 nM
GI50 [43]: 590 nM
TGI [43]: 3970 nM
GI50 [44]: 611 nM
GI50 [45]: 248 nM
TGI [45]: 1380 nM
GI50 [46]: 259 nM
TGI [46]: 2310 nM
GI50 [47]: 226 nM
TGI [47]: 2470 nM
GI50 [48]: 658 nM
TGI [48]: 12000 nM
GI50 [49]: 807 nM
TGI [49]: 5980 nM
GI50 [50]: 105 nM
TGI [50]: 958 nM
GI50 [51]: 3170 nM
TGI [51]: 30300 nM
GI50 [52]: 137 nM
TGI [52]: 405 nM
GI50 [53]: 6920 nM
TGI [53]: > 42400 nM
GI50 [54]: 1960 nM
TGI [54]: 13400 nM
GI50 [55]: 1140 nM
TGI [55]: 9400 nM
GI50 [56]: 455 nM
TGI [56]: 4330 nM
GI50 [57]: 1120 nM
TGI [57]: 10600 nM

NC(N)=N/N=C\c1c(-c2cccc([N+](=O)[O-])c2)nc2sc(Cl)cn12
TGI [3]: 3070 nM
TGI [6]: 3320 nM
TGI [17]: 5690 nM
TGI [24]: > 100000 nM
TGI [31]: 78200 nM
TGI [32]: 62700 nM
TGI [33]: > 100000 nM
TGI [58]: 4400 nM
TGI [34]: > 100000 nM
TGI [35]: > 100000 nM
TGI [37]: > 100000 nM
TGI [39]: > 100000 nM
TGI [40]: > 100000 nM
TGI [42]: 4050 nM
TGI [45]: > 100000 nM
TGI [46]: > 100000 nM
TGI [47]: 4920 nM
TGI [49]: 5040 nM
TGI [51]: > 100000 nM
TGI [52]: 4530 nM

COC(=O)[C@]12CC[C@@H](C(=O)/C=C/c3cccnc3)[C@@H]1[C@H]1CC[C@@H]3[C@@]4(C)C/C(=C/c5cccnc5)C(=O)C(C)(C)[C@@H]4CC[C@@]3(C)[C@]1(C)CC2
GI50 [1]: 357 nM
TGI [1]: 1350 nM
GI50 [2]: 716 nM
TGI [2]: 2000 nM
GI50 [3]: 281 nM
TGI [3]: 1270 nM
GI50 [4]: 334 nM
TGI [4]: 1650 nM
GI50 [5]: 245 nM
TGI [5]: 565 nM
GI50 [6]: 167 nM
TGI [6]: 331 nM
GI50 [7]: 258 nM
TGI [7]: 838 nM
GI50 [8]: 665 nM
TGI [8]: 1970 nM
GI50 [9]: 701 nM
TGI [9]: 2070 nM
GI50 [11]: 401 nM
TGI [11]: 2310 nM
GI50 [12]: 388 nM
TGI [12]: 1870 nM
GI50 [13]: 434 nM
TGI [13]: 1730 nM
GI50 [14]: 360 nM
TGI [14]: 1340 nM
GI50 [16]: 1350 nM
TGI [16]: 2630 nM
GI50 [18]: 382 nM
TGI [18]: 1440 nM
GI50 [19]: 317 nM
TGI [19]: 1050 nM
GI50 [20]: 429 nM
TGI [20]: 1670 nM
GI50 [22]: 292 nM
TGI [22]: 1510 nM
GI50 [23]: 207 nM
TGI [23]: 473 nM
GI50 [24]: 309 nM
TGI [24]: > 100000 nM
GI50 [25]: 223 nM
TGI [25]: 508 nM
GI50 [26]: 231 nM
TGI [26]: 514 nM
GI50 [27]: 510 nM
TGI [27]: 1570 nM
GI50 [30]: 387 nM
TGI [30]: 1830 nM
GI50 [31]: 335 nM
TGI [31]: 983 nM
GI50 [32]: 224 nM
TGI [32]: 947 nM
GI50 [33]: 210 nM
TGI [33]: 442 nM
GI50 [58]: 405 nM
TGI [58]: 2420 nM
GI50 [35]: 247 nM
TGI [35]: 666 nM
GI50 [36]: 2730 nM
TGI [36]: 6890 nM
GI50 [37]: 191 nM
TGI [37]: 348 nM
GI50 [39]: 260 nM
TGI [39]: 597 nM
GI50 [40]: 369 nM
TGI [40]: 1340 nM
GI50 [41]: 773 nM
TGI [41]: 2030 nM
GI50 [42]: 241 nM
TGI [42]: 570 nM
GI50 [43]: 789 nM
TGI [43]: 2340 nM
GI50 [45]: 327 nM
TGI [45]: 1050 nM
GI50 [46]: 374 nM
TGI [46]: 1330 nM
GI50 [48]: 319 nM
TGI [48]: 1020 nM
GI50 [49]: 201 nM
TGI [49]: 416 nM
GI50 [50]: 219 nM
TGI [50]: 509 nM
GI50 [51]: 395 nM
TGI [51]: 1930 nM
GI50 [52]: 359 nM
TGI [52]: 1770 nM
GI50 [53]: 296 nM
TGI [53]: 1020 nM
GI50 [54]: 204 nM
TGI [54]: 420 nM
GI50 [55]: 310 nM
TGI [55]: 1010 nM
GI50 [57]: 412 nM
TGI [57]: 2090 nM
